The results in this text go back to US20230192660A1 (priority 2020, published 2023).

The target of the experiment is SARS-CoV-2 Mpro C145A mutant (Severe acute respiratory syndrome coronavirus 2, UniProt P0DTD1, C3408A). In kind it is binding.

`CNC(=O)C(=O)[C@H](C[C@@H]1CCNC1=O)NC(=O)[C@@H]1[C@@H]2[C@H](CN1C(=O)CCc1ccccc1)C2(C)C` [ML102m]: the “ΔTm Mpro C145A” value was found to be 0 °C.

For `CC(C)(C)[C@H](NC(=O)C12CC(C1)C2)C(=O)N1C[C@H]2[C@@H]([C@H]1C(=O)N[C@@H](C[C@@H]1CCNC1=O)C(=O)C(N)=O)C2(C)C` [ML1002], the “ΔTm Mpro C145A” value turned out to be 0.1 °C.

Regarding `CC1(C)[C@@H]2[C@@H](C(=O)N[C@@H](C[C@@H]3CCNC3=O)C(=O)C(N)=O)N(C(=O)CCc3ccccc3)C[C@@H]21` [ML102], the “ΔTm Mpro C145A” value worked out at 0 °C.

`CC1(C)[C@@H]2[C@@H](C(=O)NC(C[C@@H]3CCNC3=O)C(=O)C(N)=O)N(C(=O)CNc3c(F)cc(F)cc3F)C[C@@H]21` (stereo partly shown) [ML104]: the “ΔTm Mpro C145A” value was found to be 0 °C.

For the molecule `CNC(=O)C(=O)[C@H](C[C@@H]1CCNC1=O)NC(=O)[C@@H]1[C@@H]2[C@H](CN1C(=O)[C@@H](NC(=O)C13CC(C1)C3)C(C)(C)C)C2(C)C` [ML1002m], the “ΔTm Mpro C145A” value was determined as 0.1 °C.

As to `CNC(=O)C(=O)[C@H](C[C@@H]1CCNC1=O)NC(=O)[C@@H]1[C@@H]2[C@H](CN1C(=O)CNc1c(F)cc(F)cc1F)C2(C)C` [ML104m], the “ΔTm Mpro C145A” value amounted to 0 °C.

For `COc1cccc2[nH]c(C(=O)N3C[C@H]4[C@@H]([C@H]3C(=O)N[C@@H](C[C@@H]3CCNC3=O)C(=O)C(N)=O)C4(C)C)cc12` [ML105], the “ΔTm Mpro C145A” value stood at 0 °C.
